Laboratory results: US9730455B2, “Composition comprising a biological control agent and an insecticide” (Bayer CropScience AG, priority 2012, dated 2017)
Read-outs that look alike come from different tables or passages of the source.

What was measured:
Type in all cases: in vivo
[1] = tested on: mustard beetle larvae (Phaedon cochleariae); test: Phaedon cochleariae - spray test; conditions: foliar; for mortality at 0.8 g/ha: 0.8 g ai/ha, after 6 d
Protocol: (§1) Formula for the efficacy of the combination of two compounds • The expected efficacy of a given combination of two compounds is calculated as follows (see Colby, S.R., “Calculating Synergistic and antagonistic Responses of Herbicide Combinations”, Weeds 15, pp. 20-22, 1967): • If • X is the efficacy expressed in % mortality of the untreated control for test compound A at a concentration of m ppm respectively m g/ha, • Y is the efficacy expressed in % mortality of the untreated control for test compound B at a concentration of n ppm respectively n g/ha, • E is the efficacy expressed in % mortality of the untreated control using the mixture of A and B at m and n ppm respectively m and n g/ha, • then is
• Solvent: 78.0 parts by weight of acetone • 1.5 parts by weight of dimethylformamide • Emulsifier: alkylaryl polyglycol ether
(§2) To produce a suitable preparation of active compound, 1 part by weight of active compound is mixed with the stated amount of solvents and is diluted with water, containing an emulsifier concentration of 1000 ppm, to the desired concentration. To produce a suitable preparation of a spore suspension the spores are diluted with emulsifier containing water to the desired concentration. Further test concentrations are prepared by dilution with emulsifier containing water.
Chinese cabbage (Brassica pekinensis) leaf-disks are sprayed with a preparation of the active ingredient of the desired concentration. Once dry, the leaf disks are infested with mustard beetle larvae (Phaedon cochleariae).
After the specified period of time, mortality in % is determined. 100% means all beetle larvae have been killed and 0% means none of the beetle larvae have been killed. The mortality values determined thus are recalculated using the Colby-formula (see sheet 1).

[2] = tested on: fall armyworm larvae (Spodoptera frugiperda); test: Spodoptera frugiperda - spray test; conditions: maize leaf sections; for mortality at 3.75 g/ha: 3.75 g ai/ha
Protocol: as §1
(§3) • Solvent: 78.0 parts by weight acetone • 1.5 parts by weight dimethylformamide • Emulsifier: alkylaryl polyglycol ether
as §2
Maize (Zea mais) leaf sections are sprayed with a preparation of the active ingredient of the desired concentration. Once dry, the leaf sections are infested with fall armyworm larvae (Spodoptera frugiperda).
After the specified period of time, mortality in % is determined. 100% means all caterpillars have been killed and 0% means none of the caterpillars have been killed. The mortality values determined thus are recalculated using the Colby-formula (see sheet 1).

[3] = tested on: green peach aphid (Myzus persicae); test: Myzus persicae - spray test; conditions: foliar, 24 h, after 1 d, Chinese cabbage leaf disks, read-out: Efficacy in % after 1^d (mortality)
Protocol: as §1, §3
as §2, with “Further test concentrations are prepared by dilution with emulsifier containing water.” left out
After the specified period of time, mortality in % is determined. […] The mortality values determined thus are recalculated using the Colby-formula (see sheet 1).

[4] = tested on: two spotted spidermite (Tetranychus urticae), OP-resistant; test: Tetranychus urticae - spray test, OP-resistant; conditions: French beans
Protocol: as §1, §3, §2
French beans (Phaseolus vulgaris) which are heavily infested with all stages of the two spotted spidermite (Tetranychus urticae), are sprayed with a preparation of the active ingredient of the desired concentration.
After the specified period of time, mortality in % is determined. 100% means all spider mites have been killed and 0% means none of the spider mites have been killed. The mortality values determined thus are recalculated using the Colby-formula (see sheet 1).

[5] = 144 h, Chinese cabbage leaf disks, read-out: Efficacy in % after 6^d (mortality)

Compound: CNC(=O)c1cc(Cl)cc(C)c1NC(=O)c1cc(Br)nn1-c1ncccc1Cl [Chlorantraniliprole]
- mortality at 0.8 g/ha [1, 5]: 33%
- mortality at 0.8 g/ha ([2]; Spodoptera frugiperda, 48 h, 0.8 g ai/ha, after 2 d, read-out: Efficacy in % after 2^d (mortality)): 67%
- mortality at 0.16 g/ha ([2]; Spodoptera frugiperda, 144 h, 0.16 g ai/ha, after 6 d, read-out: Efficacy in % after 6^d (mortality)): 0%

Compound: CN/C(=N\[N+](=O)[O-])NCc1cnc(Cl)s1 [Clothianidin]
- mortality at 20 g/ha ([2]; Spodoptera frugiperda, 144 h, 20 g ai/ha, after 6 d, read-out: Efficacy in % after 6^d (mortality)): 0%

Compound: CNC(=O)c1cc(C#N)cc(C)c1NC(=O)c1cc(Br)nn1-c1ncccc1Cl [Cyantraniliprole]
- mortality at 4 g/ha ([1]; 48 h, 4 g ai/ha, after 2 d, Chinese cabbage leaf disks, read-out: Efficacy in % after 2^d (mortality)): 0%
- mortality at 0.8 g/ha [1, 5]: 0%

Compound: CNC(=O)Oc1cc(C)c(SC)c(C)c1 [Methiocarb]
- mortality at 10 g/ha ([1]; in Brassica rapa, 144 h, read-out: Efficacy in % after 6^d (mortality)): 50%

Compound: N#C/N=C1\SCCN1Cc1ccc(Cl)nc1 [Thiacloprid]
- mortality at 4 g/ha ([3]; 4 g ai/ha): 0%
- mortality at 20 g/ha ([4]; Tetranychus urticae, 48 h, 20 g ai/ha, after 2 d, read-out: Efficacy in % after 2^d (mortality)): 40%

Compound: CN1COCN(Cc2cnc(Cl)s2)/C1=N\[N+](=O)[O-] [Thiamethoxam]
- mortality at 0.8 g/ha ([3]; 0.8 g ai/ha): 0%

Compound: CS/C(C)=N\OC(=O)N(C)SN(C)C(=O)O/N=C(\C)SC [Thiodicarb]
- mortality at 3.75 g/ha ([2]; Spodoptera frugiperda, 48 h, after 2 d, read-out: Efficacy in % after 2^d (mortality)): 0%
- mortality at 7.5 g/ha ([2]; Spodoptera frugiperda, 48 h, 7.5 g ai/ha, after 2 d, read-out: Efficacy in % after 2^d (mortality)): 67%
- mortality at 3.75 g/ha ([2]; Spodoptera frugiperda, 144 h, after 6 d, read-out: Efficacy in % after 6^d (mortality)): 0%

Compound: Spinetoram
- Efficacy in % after 6^d (mortality) ([2]; 0.032 g ai/ha, after 6 d): 0%
- Efficacy in % after 2^d (mortality) ([2]; 0.08 g ai/ha, after 2 d): 67%
- Efficacy in % after 6^d (mortality) ([4]; 0.08 g ai/ha): 0%
- Efficacy in % after 2^d (mortality) ([4]; 0.4 g ai/ha, after 2 d): 0%

Compound: Spinosad
- Efficacy in % after 6^d (mortality) ([2]; 0.8 g ai/ha, after 6 d): 0%
- Efficacy in % after 2^d (mortality) ([2]; 4 g ai/ha, after 2 d): 50%
- Efficacy in % after 6^d (mortality) ([4]; 20 g ai/ha): 0%
